Reference: ChEMBL document CHEMBL2086355, “Synthesis and SAR of 2',3'-bis-O-substituted N(6), 5'-bis-ureidoadenosine derivatives: implications for prodrug delivery and mechanism of action” (Bioorg Med Chem Lett, 2012)
≈ marks a conversion by molar mass, not a printed value.

Columns and labels:
[1] = system: CCRF-CEM; assay: Antiproliferative activity against human CEM cells after 72 hrs by Coulter counting analysis; type: functional, cell-based
[2] = system: HeLa; assay: Antiproliferative activity against human HeLa cells after 96 hrs by Coulter counting analysis; type: functional, cell-based
[3] = system: FM3A; assay: Antiproliferative activity against mouse FM3A cells after 48 hrs by Coulter counting analysis; type: functional, cell-based
[4] = system: L1210; assay: Antiproliferative activity against mouse L1210 cells after 48 hrs by Coulter counting analysis; type: functional, cell-based; details: L1210, 48 h
[5] = molecular target: Bone morphogenetic protein receptor type-1B (Homo sapiens) (UniProt O00238); assay: Inhibition of BMPR1b assessed as activity remaining at 10 uM by competitive binding inhibition assay
Bone morphogenetic protein receptor type-1B (Homo sapiens), sequence (O00238 whole entry): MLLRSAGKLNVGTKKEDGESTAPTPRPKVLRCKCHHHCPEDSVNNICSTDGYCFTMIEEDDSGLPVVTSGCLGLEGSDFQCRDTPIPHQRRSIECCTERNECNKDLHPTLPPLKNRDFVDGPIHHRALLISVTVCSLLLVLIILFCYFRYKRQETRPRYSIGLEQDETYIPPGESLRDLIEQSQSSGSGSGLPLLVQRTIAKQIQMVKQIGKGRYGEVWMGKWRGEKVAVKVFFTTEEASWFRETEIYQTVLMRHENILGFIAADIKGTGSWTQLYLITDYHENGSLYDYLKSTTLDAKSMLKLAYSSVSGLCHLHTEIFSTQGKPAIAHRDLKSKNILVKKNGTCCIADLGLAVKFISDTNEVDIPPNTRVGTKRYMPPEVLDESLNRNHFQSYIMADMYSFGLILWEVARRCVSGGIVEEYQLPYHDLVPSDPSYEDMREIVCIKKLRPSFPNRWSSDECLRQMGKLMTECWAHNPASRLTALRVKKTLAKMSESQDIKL

| SMILES | IC50 [1] [µg/mL] | IC50 [2] [µg/mL] | IC50 [4] [µg/mL] | Activity [5] [%] | IC50 [3] [µg/mL] |
| --- | --- | --- | --- | --- | --- |
| CNC(=O)NC[C@H]1O[C@@H](n2cnc3c(N)ncnc32)[C@H](OC(C)=O)[C@@H]1OC(C)=O | > 200 | > 200 | 112 (≈ 275 µM) | – | > 200 |
| CNC(=O)NC[C@H]1O[C@@H](n2cnc3c(N)ncnc32)[C@H](OC(=O)C(C)C)[C@@H]1OC(=O)C(C)C | 88 (≈ 190 µM) | 99 (≈ 214 µM) | 87 (≈ 188 µM) | – | 107 (≈ 231 µM) |
| CNC(=O)NC[C@H]1O[C@@H](n2cnc3c(NC(=O)Nc4ccccc4)ncnc32)[C@H](OC(=O)c2ccccc2)[C@@H]1OC(=O)c1ccccc1 | > 200 | > 200 | 154 (≈ 237 µM) | 100 | 61 (≈ 93.8 µM) |
| CNC(=O)NC[C@H]1O[C@@H](n2cnc3c(NC(=O)Nc4ccccc4)ncnc32)[C@H](O[Si](c2ccccc2)(c2ccccc2)C(C)(C)C)[C@@H]1O[Si](c1ccccc1)(c1ccccc1)C(C)(C)C | ≥ 200 | 104 (≈ 113 µM) | > 200 | 100 | > 200 |
| CNC(=O)NC[C@H]1O[C@@H](n2cnc3c(N)ncnc32)[C@H](OC(=O)c2ccccc2)[C@@H]1OC(=O)c1ccccc1 | 19 (≈ 35.7 µM) | 40 (≈ 75.3 µM) | 16 (≈ 30.1 µM) | – | 36 (≈ 67.7 µM) |
| CCCCCCCCCCCCCCCC(=O)O[C@@H]1[C@H](OC(=O)CCCCCCCCCCCCCCC)[C@@H](CNC(=O)NC)O[C@H]1n1cnc2c(NC(=O)Nc3ccccc3)ncnc21 | > 100 | > 100 | > 100 | – | > 200 |
| CCCCCCCC(=O)O[C@@H]1[C@H](OC(=O)CCCCCCC)[C@@H](CNC(=O)NC)O[C@H]1n1cnc2c(NC(=O)Nc3ccccc3)ncnc21 | 12 (≈ 17.3 µM) | 16 (≈ 23 µM) | 11 (≈ 15.8 µM) | – | 32 (≈ 46.1 µM) |
| CCCCCCCCCC(=O)O[C@@H]1[C@H](OC(=O)CCCCCCCCC)[C@@H](CNC(=O)NC)O[C@H]1n1cnc2c(NC(=O)Nc3ccccc3)ncnc21 | > 100 | > 100 | > 100 | – | 140 (≈ 186 µM) |

Now from value to compound, other results behind:

| IC50 [1] [µg/mL] | IC50 [2] [µg/mL] | IC50 [4] [µg/mL] | Activity [5] [%] | SMILES | IC50 [3] [µg/mL] |
| --- | --- | --- | --- | --- | --- |
| 10 (≈ 15.7 µM) | 15 (≈ 23.5 µM) | 9.5 (≈ 14.9 µM) | – | CCCCCC(=O)O[C@@H]1[C@H](OC(=O)CCCCC)[C@@H](CNC(=O)NC)O[C@H]1n1cnc2c(NC(=O)Nc3ccccc3)ncnc21 | 20 (≈ 31.3 µM) |
| 4.2 (≈ 6.26 µM) | 3.7 (≈ 5.51 µM) | 3.8 (≈ 5.66 µM) | 100 | CC[Si](CC)(CC)O[C@@H]1[C@H](O[Si](CC)(CC)CC)[C@@H](CNC(=O)NC)O[C@H]1n1cnc2c(NC(=O)Nc3ccccc3)ncnc21 | 3 (≈ 4.47 µM) |
| 107 (≈ 203 µM) | > 200 | 97 (≈ 184 µM) | 95 | CNC(=O)NC[C@H]1O[C@@H](n2cnc3c(NC(=O)Nc4ccccc4)ncnc32)[C@H](OC(C)=O)[C@@H]1OC(C)=O | 150 (≈ 285 µM) |
| 29 (≈ 49.8 µM) | 58 (≈ 99.6 µM) | 20 (≈ 34.3 µM) | – | CCCC(=O)O[C@@H]1[C@H](OC(=O)CCC)[C@@H](CNC(=O)NC)O[C@H]1n1cnc2c(NC(=O)Nc3ccccc3)ncnc21 | 18 (≈ 30.9 µM) |
| 28 (≈ 48.1 µM) | 73 (≈ 125 µM) | 29 (≈ 49.8 µM) | 100 | CNC(=O)NC[C@H]1O[C@@H](n2cnc3c(NC(=O)Nc4ccccc4)ncnc32)[C@H](OC(=O)C(C)C)[C@@H]1OC(=O)C(C)C | 44 (≈ 75.5 µM) |
| 20 (≈ 32.8 µM) | 17 (≈ 27.8 µM) | 9.7 (≈ 15.9 µM) | – | CNC(=O)NC[C@H]1O[C@@H](n2cnc3c(NC(=O)Nc4ccccc4)ncnc32)[C@H](OC(=O)C(C)(C)C)[C@@H]1OC(=O)C(C)(C)C | 15 (≈ 24.6 µM) |
| 142 (≈ 188 µM) | ≥ 200 | > 200 | 100 | CNC(=O)NC[C@H]1O[C@@H](n2cnc3c(NC(=O)Nc4ccccc4)ncnc32)[C@H](O[Si](C(C)C)(C(C)C)C(C)C)[C@@H]1O[Si](C(C)C)(C(C)C)C(C)C | > 200 |
